Source: patent publication US11064704B2, “Natural product formulations with improved residual insect repellent/deterrent activity” (University of Mississippi, priority 2016, dated 2021)

Key:
Aedes aegypti females = conditions: literature values; cited from earlier work
[1] = test system: Anopheles quadrimaculatus mosquitoes; assay: in vitro A&K (Ali and Khan) repellent bioassay; format: in vivo; conditions: compared with DEET
Text: The A&K (Ali and Khan) bioassay system is based on the concept that the mosquitoes are attracted to warm temperatures, and this system uses warm temperature to serve as stimulus for landing and feeding. The details of the A&K bioassay systems are given in Ali et al. (2017).
In summary, this in vitro system consisted of a 30×30×30 cm collapsible aluminum cage (Model 1450B, BioQuip Products, 2321 Gladwick Street, Rancho Dominguez, Calif. 90220, USA) with metal screens. On one panel of the cage, metal screen was replaced with a clear acrylic transparent sheet. […] The blood box had three sides covered with acrylic sheet while the front side was open to insert the feeding device. […] The sliding door served to contain the females inside the cage when the feeding device was pulled out for loading the treatment. This door was slid open when the feeding device was pushed in during the bioassay to expose the females to the treatment.
The feeding device had one 3×4 cm rectangular reservoir that contained the feeding solution. The feeding device was connected to the water circulator. The reservoir of the feeding device with feeding solution was covered with a chemical treated collagen sheet. To observe the landing and feeding of female mosquitoes, feeding solution in the reservoir was heated to match the human body temperature using a water circulator which was set at 37° C. The feeding solution had 3-4° C. higher temperature than the solid platform, and this increased temperature of the feeding solution became a better source of attraction and preference for the mosquitoes than the other parts of the feeding device.
The rectangular reservoir of the feeding device was filled with the CPDA 1+ATP solution having a few drops of green fluorescent traceable water-soluble dye to serve as a feeding source. A test was started when the 3×4 cm marked areas of collagen were treated with the desired chemical in a volume of 50 μL/[…]. The treated collagen sheet was then secured on the reservoir using a thin layer of high vacuum grease (Dow Corning Corporation, Midland, Mich. 48686). The feeding device was then pushed into the blood box and the sliding door was opened to expose females to the treatment.
Stock solutions were made in ethanol. All the dilutions were made in EtOH and applied in a volume of 50 μL covering […] of the collagen sheet. Minimum effective dosage (MED) values in this in vitro bioassay were determined using a method described by Katritzky et al. (2010).
The cage contained 200±10, 8-18 day old female mosquitoes. The number of mosquitoes landing and biting were recorded visually for 1 minute. Three or four cages were used at a time, and one treatment was evaluated in a single cage. The minimum dose at which 2 or less mosquitoes (i.e. less than or equal to 1% of 200 females in the cage) started feeding in 1 minute was the minimum effective dose (“MED”). Continuous exposure of the mosquitoes in the cage can result in reduced landing and biting, therefore, 3-4 cages were used and only one replication was completed for each chemical in a single cage. To ensure accuracy of the treatment, rectangular areas of (3×4 cm (12 cm^2) or 7.5×4 cm (30 cm^2) were marked on the collagen that matched the measurement of the rectangular liquid reservoirs. Treatments were applied in a volume of 50 μL (12 cm^2 area) or 107 μL (30 cm^2 area). Treated collagen sheets were secured on a feeding reservoir containing CPDA-1+ATP solution using a thin layer of grease (Dow Corning Corp, Midland, Mich.). The feeding device was pushed inside the blood box and the sliding door was […] to expose the females to the treatment.
To ensure the normal activity (≥10% landing), control treatment was repeated after every 5 replications, and the bioassay was stopped if the response was less than the control. The data is presented as MED values with the mean percentage biting (±SEM) in parenthesis. […]

An. quadrimaculatus = assay: in vitro Klun and Debboun (K&D) biting deterrent bioassay; format: in vivo, Anopheles quadrimaculatus
Description: Experiments were conducted by using a six-celled in vitro Klun and Debboun (K&D) module bioassay system developed by Klun et al. (2005) for quantitative evaluation of biting deterrence. Briefly, the assay system consists of a six well reservoir with each of the 3×4 cm wells containing 6 mL of blood or feeding solution. As described by Ali et al. (2012), a feeding solution consisting of CPDA-1 and ATP was used instead of blood. Green fluorescent tracer dye (www.blacklightworld.com) was used to determine the feeding by the females. Carrot seed essential oil was initially tested to determine the biting deterrent activity. […] Essential oil and carotol were further tested against Ae. aegypti and An. quadrimaculatus in this bioassay. Treatments of carrot seed essential oil at 10 μg/cm^2 and carotol were tested at 10 and 5 μg/cm^2, whereas DEET (97% N,N-diethyl-meta-toluamide) (Sigma Aldrich, St. Louis, Mo.) at 25 nmol/cm^2 was used as positive control. All the treatments were freshly prepared in molecular biology grade 100% ethanol (Fisher Scientific Chemical Co. Fairlawn, N.J.) at the time of bioassay.
The temperature of the solution in the reservoirs was maintained at 37° C. by continuously passing warm water through the reservoir using a circulatory bath. The reservoirs were covered with a layer of collagen membrane (Devro, Sandy Run, S.C.). The test compounds were randomly applied to six 4×5 cm areas of organdy cloth and positioned over the membrane-covered CPDA-1+ATP solution with a Teflon® separator placed between the treated cloth and the six-celled module to prevent the contamination of the module. […] The number of mosquitoes biting through organdy treatments in each cell was recorded after a 3 minute exposure, and mosquitoes were prodded back into the cells to check the actual feeding. […] Proportion not biting (PNB) was calculated using the procedure described by Ali et al. (2012).

Compound | MED values reported by Ali et al. (2012) and Katritzky et al. (2010) (Aedes aegypti females) [μg/cm^2] | repellent activity [1] | proportion not biting (PNB) (An. quadrimaculatus; 25 nmol/cm^2) | proportion not biting (PNB) (An. quadrimaculatus; 10 μg/cm^2) | biting deterrent activity (An. quadrimaculatus; compared with DEET)
CCN(CC)C(=O)c1cccc(C)c1 [DEET, N,N-diethyl-meta-toluamide, reference compound] | 9 | – | – | – | –
CC1=CC[C@]2(C)CC[C@@H](C(C)C)[C@]2(O)CC1 [carotol] | – | comparable to DEET | 0.72 | 0.78 | comparable to DEET
